Entries after “also recorded” stand apart in the source; their conditions may differ.
Tested on: BEAS-2B cells
Test: IL-8 release induced by TNF-α on BEAS-2B cells (ELISA on supernatant after 6 h)
Assay type: cell-based, human
Protocol: BEAS-2B cells were co-incubated with TNF-α (1 pg/mL) alone or with different doses of budesonide (1.5; 0.75; 0.5; 0.1 nM). After 6 hours of incubation, the IL-8 concentration was measured in the supernatant. IL-8 levels are expressed as a percentage of the IL-8 level induced by stimulation with TNF-α for 6 hours. The results correspond to the mean+SEM for at least 3 experiments, n=6-12 technical replicates. *p<0.05 and ***p<0.001 compared with the TNF-α control group.
BEAS-2B cells were co-incubated with TNF-α (1 pg/mL) alone or with a strain of E. faecalis (CNCM I-4969; I-5701; I-5699) MOI 10:1, and/or 0.1 nM of budesonide, or 0.5 nM of budesonide. After 6 hours of incubation, the IL-8 concentration was measured in the supernatant by ELISA. IL-8 levels are expressed as a percentage of the IL-8 level induced by stimulation with TNF-α for 6 hours. The results correspond to the median of 3 experiments, n=9 technical replicates. *p<0.05 and ***p<0.001 compared with the TNF-α control group, by a Kruskal-Wallis non-parametric test followed by Dunn's post-test.
Human bronchial cells (BEAS-2B) are cultured and a pro-inflammatory situation is induced via the addition of TNF-α to the medium. The BEAS-2B cells then respond by releasing IL-8 into the medium. The IL-8 assay after 6 hours is used to estimate the activation state of the cells, which can be reduced by adding an anti-inflammatory agent.

## CCCC1O[C@@H]2C[C@H]3[C@@H]4CCC5=CC(=O)C=C[C@]5(C)[C@H]4[C@@H](O)C[C@]3(C)[C@]2(C(=O)CO)O1 (stereo partly drawn) [budesonide]
Homo sapiens, BEAS-2B, budesonide alone at 5-times higher dose (0.5 nM), TNF-α-stimulated BEAS-2B
  inhibition at 0.0005 µM: 50%
Budesonide alone at 5-times higher dose (0.5 nM), TNF-α-stimulated BEAS-2B, 0.0005 µM
  inhibition of IL-8 release: 55%
Budesonide alone, 0.1 nM, BEAS-2B
  effect on the release of IL-8 induced by TNF-α: do not have any effect; also recorded: no effect

— patent publication US20240342227A1, “COMBINATION OF E. FAECALIS AND AN ANTI-INFLAMMATORY AGENT AND USES THEREOF IN THE PREVENTION AND/OR TREATMENT OF RESPIRATORY DISEASES” (INSTITUT NATIONAL DE RECHERCHE POUR L'AGRICULTURE, …, priority 2021, published 2024)
